Test results published in patent US20230106943A1, “ENGINEERED ANTIMICROBIAL PEPTIDES AND USAGE THEREOF” (Peptilogics, Inc., priority 2021, published 2023).
Read-outs that look alike come from different tables or passages of the source. No end group written: not given here.

How the values were obtained:
[1] = Example 4 stability of concentrated saline pH 5.0 solutions at −20° C. or 40° C./75% RH: Visual Appearance (method 25481); format: physicochemical
Procedure: (§1) The peptide formulation of SEQ ID NO: 1 dissolved in a saline solution with a pH of 5.0±0.1 was tested for stability under either −20° C. or 40° C. with 75% relative humidity (RH). […]

[2] = Example 4 stability of concentrated solutions: UV-Vis Assay (method 78933); format: physicochemical
Procedure: as §1

[3] = Example 4 stability of concentrated solutions: Osmolality (method 69153); format: physicochemical
Procedure: as §1

[4] = Example 6 solubility near saturation of SEQ ID NO: 1 in water at pH 5.0, 7.4, 8.1 (HPLC); format: physicochemical; settings: for Purity of near saturation solution: water
Procedure: SEQ ID NO: 1 was dissolved to near saturation of different pH values.
396.69 mg of SEQ ID NO:1 was weighed out and dissolved in approximately 3 mL of HPLC-grade water resulting in a clear and colorless solution. The pH was 4.80 and the concentration approximately 132 mg/mL. The pH was adjusted with 0.08 M NaOH to pH=4.99. 1.1 mL was pulled, transferred to a serum vial, frozen and lyophilized. The remaining solution was adjusted to pH=7.40 with 0.08 M and 1 M NaOH. 1.45 mL was pulled, transferred to a serum vial, frozen and lyophilized. The remaining solution was adjusted to pH=8.00 with 0.08 M NaOH. This remaining solution (˜1.9 mL) was transferred to a serum vial, frozen and lyophilized. After lyophilization 200 μL HPLC-grade water was added to the solids in the serum vials and a colorless slurry was obtained. An additional 200 μL HPLC-grade water was added to obtain clear and colorless solutions. At pH=5.0 the solids went into solution without foaming; solids at pH=7.4 and pH=8 took longer to dissolve. These solutions (0.4 mL) were transferred to conical Eppendorf tubes. The vials were washed with 0.2 mL of HPLC grade water and the washes were combined with the respective solutions at the three different pH conditions. The samples were frozen and lyophilized. To the lyo cakes 50 μL increments of HPLC grade water was added. Transition from suspension or slurry to viscous solution was hard to capture. After adding 150 μL to 350 μL of HPLC grade water and intermittent mixing and storage at ambient temperature viscous and clear solutions were obtained which turned to gels when stored refrigerated at 2-8° C. All viscous solutions were centrifuged for 10 min at 12 krpm. No visible pellets were detected after centrifugation. Supernatants of the samples were analyzed for peptide concentration and purity by HPLC analysis.

[5] = not given; remark: listed apart in the source
[6] = Stability of 5 mg/mL SEQ ID NO: 1 solution pH 5.0 stored at 40° C. or −20° C. (content, pH, HPLC area %); format: physicochemical
[7] = 15.3 mg/mL solution, 40° C. and 75% RH, 1 Month
[8] = 15.3 mg/mL solution, 40° C. and 75% RH, 2 Month
[9] = 15.3 mg/mL solution, 40° C. and 75% RH, 3 Month
[10] = 15.3 mg/mL solution, 40° C. and 75% RH, 6 Month
[11] = 15.3 mg/mL solution, −20° C., 0 Month
[12] = 15.3 mg/mL solution, −20° C., 1 Month
[13] = 15.3 mg/mL solution, −20° C., 2 Month
[14] = 15.3 mg/mL solution, −20° C., 3 Month
[15] = 15.3 mg/mL solution, −20° C., 6 Month
[16] = 36.7 mg/mL solution, 40° C. and 75% RH, 1 Month
[17] = 36.7 mg/mL solution, 40° C. and 75% RH, 2 Month
[18] = 36.7 mg/mL solution, 40° C. and 75% RH, 3 Month
[19] = 36.7 mg/mL solution, 40° C. and 75% RH, 6 Month
[20] = 36.7 mg/mL solution, −20° C., 0 Month
[21] = 36.7 mg/mL solution, −20° C., 1 Month
[22] = 36.7 mg/mL solution, −20° C., 2 Month
[23] = 36.7 mg/mL solution, −20° C., 3 Month
[24] = 36.7 mg/mL solution, −20° C., 6 Month
[25] = 72.4 mg/mL solution, 40° C. and 75% RH, 1 Month
[26] = 72.4 mg/mL solution, 40° C. and 75% RH, 2 Month
[27] = 72.4 mg/mL solution, 40° C. and 75% RH, 3 Month
[28] = 72.4 mg/mL solution, 40° C. and 75% RH, 6 Month
[29] = 72.4 mg/mL solution, −20° C., 0 Month
[30] = 72.4 mg/mL solution, −20° C., 1 Month
[31] = 72.4 mg/mL solution, −20° C., 2 Month
[32] = 72.4 mg/mL solution, −20° C., 3 Month
[33] = 72.4 mg/mL solution, −20° C., 6 Month
[34] = 81.4 mg/mL solution, 40° C. and 75% RH, 1 Month
[35] = 81.4 mg/mL solution, 40° C. and 75% RH, 3 Month
[36] = 81.4 mg/mL solution, −20° C., 1 Month
[37] = 81.4 mg/mL solution, −20° C., 2 Month
[38] = 81.4 mg/mL solution, −20° C., 3 Month
[39] = 15.3 mg/mL solution, −20° C., 9 Month
[40] = 36.7 mg/mL solution, −20° C., 9 Month
[41] = 72.4 mg/mL solution, −20° C., 9 Month
[42] = 81.4 mg/mL solution, −20° C., 0 Month

Substance: RRWVRRVRRVWRRVVRVVRRWVRR-NH2 [SEQ ID NO: 1]
- Visual Appearance [1, 7]: Clear, colorless liquid. Free of visible particulates.
- Visual Appearance [1, 8]: Clear, colorless liquid. Free of visible particulates.
- Visual Appearance [1, 9]: Clear, colorless liquid. Free of visible particulates.
- Visual Appearance [1, 10]: Clear, colorless liquid. Free of visible particulates,
- Visual Appearance [1, 11]: Clear, colorless liquid. Free of visible particulates.
- Visual Appearance [1, 12]: Clear, colorless liquid. Free of visible particulates.
- Visual Appearance [1, 13]: Clear, colorless liquid. Free of visible
- Visual Appearance [1, 14]: Clear, colorless liquid. Free of visible particulates.
- Visual Appearance [1, 15]: Clear, colorless liquid. Free of visible particulates,
- Visual Appearance [1, 16]: Clear, colorless liquid
- Visual Appearance [1, 17]: Clear, colorless liquid
- Visual Appearance [1, 18]: Clear, colorless liquid
- Visual Appearance [1, 19]: Clear, colorless liquid, free
- Visual Appearance [1, 20]: Clear, colorless liquid.
- Visual Appearance [1, 21]: Clear, colorless liquid.
- Visual Appearance [1, 22]: Clear, colorless liquid.
- Visual Appearance [1, 23]: Clear, colorless liquid.
- Visual Appearance [1, 24]: Clear, colorless liquid, free
- Visual Appearance [1, 25]: Clear, colorless liquid
- Visual Appearance [1, 26]: Clear, colorless liquid
- Visual Appearance [1, 27]: Clear, colorless liquid
- Visual Appearance [1, 28]: Clear, slightly yellow liquid, free
- Visual Appearance [1, 29]: Clear, colorless liquid
- Visual Appearance [1, 30]: Clear, colorless liquid
- Visual Appearance [1, 31]: Clear, colorless liquid
- Visual Appearance [1, 32]: Clear, colorless liquid
- Visual Appearance [1, 33]: Clear, colorless liquid, free
- Visual Appearance [1, 34]: Clear, yellow liquid
- Visual Appearance [1, 35]: stopper Solution: Clear, yellow
- Visual Appearance [1, 36]: Clear, colorless liquid
- Visual Appearance [1, 37]: a clear colorless liquid, visibly
- Visual Appearance [1, 38]: rubber stopper Solution: Clear, colorless liquid,
- UV-Vis Assay [2, 7]: 102.0%
- UV-Vis Assay [2, 8]: 102.2%
- UV-Vis Assay [2, 9]: 103.9%
- UV-Vis Assay [2, 10]: 102.5%
- UV-Vis Assay [2, 11]: 102.0%
- UV-Vis Assay [2, 12]: 101.5%
- UV-Vis Assay [2, 13]: 104.0%
- UV-Vis Assay [2, 14]: 105.1%
- UV-Vis Assay [2, 15]: 103.9%
- UV-Vis Assay [2, 39]: 103.1%
- UV-Vis Assay [2, 16]: 100.3%
- UV-Vis Assay [2, 17]: 101.3%
- UV-Vis Assay [2, 18]: 99.2%
- UV-Vis Assay [2, 19]: 100.1%
- UV-Vis Assay [2, 20]: 98.1%
- UV-Vis Assay [2, 21]: 100.0%
- UV-Vis Assay [2, 22]: 100.6%
- UV-Vis Assay [2, 23]: 101.7%
- UV-Vis Assay [2, 24]: 99.5%
- UV-Vis Assay [2, 40]: 100.3%
- UV-Vis Assay [2, 25]: 97.8%
- UV-Vis Assay [2, 26]: 98.6%
- UV-Vis Assay [2, 27]: 93.4%
- UV-Vis Assay [2, 28]: 95.4%
- UV-Vis Assay [2, 29]: 90.1%
- UV-Vis Assay [2, 30]: 97.6%
- UV-Vis Assay [2, 31]: 98.2%
- UV-Vis Assay [2, 32]: 94.5%
- UV-Vis Assay [2, 33]: 97.0%
- UV-Vis Assay [2, 41]: 99.0%
- UV-Vis Assay [2, 42]: 105.0 % LC
- Osmolality [3, 7]: Average Reading: 82 mOsmol/kg
- Osmolality [3, 8]: Average Reading: 83 mOsmol/kg
- Osmolality [3, 9]: Average Reading: 80 mOsmol/kg
- Osmolality [3, 10]: 85 mOsmol/kg
- Osmolality [3, 11]: Average Reading: 82 mOsmol/kg
- Osmolality [3, 12]: Average Reading: 82 mOsmol/kg
- Osmolality [3, 13]: Average Reading: 82 mOsmol/kg
- Osmolality [3, 14]: Average Reading: 82 mOsmol/kg
- Osmolality [3, 15]: 84 mOsmol/kg
- Osmolality [3, 39]: 83 mOsmol/kg
- Osmolality Average Reading [3, 16]: Average Reading: 188 mOsmol/kg
- Osmolality Average Reading [3, 17]: Average Reading: 189 mOsmol/kg
- Osmolality Average Reading [3, 18]: Average Reading: 191 mOsmol/kg
- Osmolality [3, 19]: 193 mOsmol/kg
- Osmolality [3, 20]: Average Reading: 190 mOsmol/kg
- Osmolality [3, 21]: Average Reading: 188 mOsmol/kg
- Osmolality [3, 22]: Average Reading: 190 mOsmol/kg
- Osmolality [3, 23]: Average Reading: 193 mOsmol/kg
- Osmolality [3, 24]: 190 mOsmol/kg
- Osmolality [3, 40]: 190 mOsmol/kg
- Osmolality Average Reading [3, 25]: Average Reading: 374 mOsmol/kg
- Osmolality Average Reading [3, 26]: Average Reading: 379 mOsmol/kg
- Osmolality Average Reading [3, 27]: Average Reading: 371 mOsmol/kg
- Osmolality [3, 28]: 194 mOsmol/kg
- Osmolality Average Reading [3, 29]: Average Reading: 371 mOsmol/kg
- Osmolality Average Reading [3, 30]: Average Reading: 374 mOsmol/kg
- Osmolality Average Reading [3, 31]: Average Reading: 376 mOsmol/kg
- Osmolality Average Reading [3, 32]: Average Reading: 374 mOsmol/kg
- Osmolality [3, 33]: 195 mOsmol/kg
- Osmolality [3, 41]: 375 mOsmol/kg
- Osmolality [3, 34]: 489 mOsm/kg
- Osmolality ([3]; 81.4 mg/mL solution, 40° C. and 75% RH, 2 Month): 491 mOsm/kg
- Osmolality [3, 35]: 492 mOsm/kg
- Osmolality [3, 42]: 485 mOsm/kg
- Osmolality [3, 36]: 489 mOsm/kg
- Osmolality [3, 37]: 488 mOsm/kg
- Osmolality [3, 38]: 486 mOsm/kg
- solubility ([4]; pH 5, water, pH 5.0, read-out: Solubility of near saturation, Concentration): ≥ 328 mg/mL
- solubility ([4]; pH 7.4, water, pH 7.4, read-out: Solubility of near saturation, Concentration): ≥ 228 mg/mL
- solubility ([4]; pH 8.1, water, pH 8.1, read-out: Solubility of near saturation, Concentration): ≥ 250 mg/mL
- solubility ([4]; pH=5.0, read-out: solubility near saturation concentration in water): 328 mg/mL
- solubility ([4]; pH=7.4, read-out: solubility near saturation concentration in water): 228 mg/mL
- solubility ([4]; pH=8.1, read-out: solubility near saturation concentration in water): 250 mg/mL
- Purity of near saturation solution ([4]; pH 5.0): 95.6%
- Purity of near saturation solution ([4]; pH 7.4): 97.2%
- Purity of near saturation solution ([4]; pH 8.1): 96.7%
- solubility: > 100 mg/mL
- pKa [5]: ~12.5
- Solution pH ([6]; 7 days/−20° C.): 4.95
- Main peak SEQ ID NO: 1 area % ([6]; 14 days/−20° C.): 95.4%
- SEQ ID NO: 1 content ([6]; 54 days/−20° C.): 5.09 mg/mL
- Solution pH ([6]; 54 days/−20° C.): 4.95
